What was measured:
C57BL/6J mice = test: Wire suspension (wire hanging) test of grip strength / motor function after MCAo; assay type: in vivo, mouse; settings: Example 2, FIG. 13
Protocol: Animals will be trained 2 days before MCAo procedure and will be tested on day 3, 7, and 14 post stroke. Animals will be allow to suspend their bodies on a single wire stretched between 2 posts 50 cm above the ground. Between the posts, a soft pillow will be placed to avoid injury in case of a fall. Training will be achieved simply with several rounds of habituation and trials. In the actual testing phase, mice will be tested 3 times and average performance is recorded as final values.
All mice were first ovariectomized to deplete endogenous ovarian hormone levels. Two weeks after ovariectomy (OVX), P4 pellets were subcutaneously implanted into these animals to replenish their progesterone levels. In parallel, different groups received cholesterol pellet implantations to serve as vehicle control. One week after pellet implantation, stroke was induced in these mice using middle cerebral artery occlusion (MCAo) procedure. In parallel, different groups received sham operation (non-stroke). […]
wire suspension test: In ordered to assess motor function recovery with different treatments, wire suspension test, a test of grip strength and endurance, was used, as described elsewhere (58). […] The latency for animals to fall off the wire was recorded. […] Performances of these mice was evaluated at day 3, 7 and 14 post stroke.

let-7i = let-7i expression in the penumbra of the ischemic brain after MCAo (qRT-PCR); assay type: in vivo, mouse; settings: MCAo mice; day 7 up to 14 days following stroke; FIG. 11E
Source text: (§1) (FIG. 11A) Representative immunoblots probed for Pgrmc1, pro- and mature-BDNF. (FIG. 11B) Quantitation graph of relative Pgrmc1 protein ratio to Gapdh (n=4-5 per group). (FIG. 11C) Quantitation graph of relative pro-BDNF protein ratio to Gapdh (n=4-5 per group). (FIG. 11D) Quantitation graph of relative mature BDNF protein ratio to Gapdh (n=4-5 per group). (FIG. 11E) Quantitation graph of relative let-7i expression in ischemic brain (n=4-5 per group). n.s: not significant, ** P<0.01 and *P<0.05 compared to sham, and #P<0.05 compared to P4+scrambled. Data are presented as the mean±SEM.
For miRNA expression measurements, total RNA (10 ng) was reverse transcribed into cDNA in a total volume of 15 μl using the microRNA cDNA Archive Kit (ThermoFisher Scientific) according to the manufacturer's instructions. The reaction mixture contained water, 2× quantitative PCR Master Mix (Eurogentec), and 20× Assay-On-Demand for each target gene. A separate reaction mixture was prepared for the endogenous control, U6. The reaction mixture was aliquoted in a 96-well plate, and cDNA added to give a final volume of 20 μl. Each sample was analyzed in triplicate. The comparative cycle threshold (Ct) method (2^−ΔΔCt) was used to calculate the relative changes in target miRNA expression.
All mice were first ovariectomized to deplete endogenous ovarian hormone levels. […]

Pgrmc1 = Pgrmc1 protein in the penumbra after MCAo (Western blot); assay type: in vivo, mouse; settings: MCAo mice; day 7 and day 14; FIG. 11B
Source text: as §1
(§2) Primary cortical astrocytes and mouse brains were lysed with RIPA lysis buffer containing protease and phosphatase inhibitors, as previously described (44). After homogenization, samples were centrifuged at 45,000 rpm for 30 min at 4° C. and supernatants were collected. Total protein concentrations were determined using the Bio-Rad DC protein assay kit (Bio-Rad Laboratories). Cell lysates were separated by SDS-PAGE and transferred onto polyvinylidene fluoride membrane (Bio-Rad Laboratories) by electroblotting. Membranes were blocked with 5% skim milk in tris-buffered saline containing 0.2% Tween 20 (TBS-T) for 1 h at room temperature, followed by overnight incubations of primary antibodies at 4° C. […]

BDNF = test: pro- and mature BDNF protein in the penumbra after MCAo (Western blot); assay type: in vivo, mouse; settings: MCAo mice; 14 days post stroke, compared to sham; FIG. 11D
Source text: as §1, §2

[1] = tested on: primary cortical astrocytes; settings: 10 nM P4; reported in reference (10); cited from earlier work

CC(=O)[C@H]1CC[C@H]2[C@@H]3CCC4=CC(=O)CC[C@]4(C)[C@H]3CC[C@]12C [P4, progesterone]
motor function recovery (wire suspension test) (C57BL/6J mice; day 7): partial recovery
motor function recovery (wire suspension test) (C57BL/6J mice; day 14): partial recovery
stroke-induced increase in let-7i expression in the penumbra (let-7i): did not attenuate
Pgrmc1 protein level in the penumbra (Pgrmc1): did not restore
mature BDNF level in the penumbra (BDNF): able to maintain the same level
release of BDNF from astrocytes [1]: maximal release of BDNF

From US11230711B2, “Inhibition of LET7I as a means to enhance the protective effect of progesterone against stroke” (UNIVERSITY OF NORTH TEXAS HEALTH SCIENCE CENTER, priority 2017, dated 2022)
